# Assay results from US20030134842A1, “METHODS FOR THE TREATMENT OR PREVENTION OF INFLAMMATORY DISEASES CHARACTERIZED BY ABNORMAL CELL PROLIFERATION” (priority 1997, published 2003).
# Tests used:
# [1] = target: T1, red cell Gardos channel (Mus musculus, UniProt O89109); settings: SAD mouse, oral administration; cited from earlier work
# T1 construct: host or cells: red cells of the SAD mouse, in vivo
# [2] = test system: NIH 3T3 mouse fibroblast cells; assay: Mitogenic assay (mitogen-induced cell proliferation); assay type: cell-based; settings: 10 µM compound, NIH 3T3 mouse fibroblast cells
# [3] = target: T2, Gardos channel (Homo sapiens, UniProt O15554); settings: patients with sickle cell disease, oral; cited from earlier work
# T2 construct: reduces erythrocyte dehydration in patients with sickle cell disease; host or cells: erythrocytes of sickle cell patients, in vivo
# T2 sequence (O15554 whole entry): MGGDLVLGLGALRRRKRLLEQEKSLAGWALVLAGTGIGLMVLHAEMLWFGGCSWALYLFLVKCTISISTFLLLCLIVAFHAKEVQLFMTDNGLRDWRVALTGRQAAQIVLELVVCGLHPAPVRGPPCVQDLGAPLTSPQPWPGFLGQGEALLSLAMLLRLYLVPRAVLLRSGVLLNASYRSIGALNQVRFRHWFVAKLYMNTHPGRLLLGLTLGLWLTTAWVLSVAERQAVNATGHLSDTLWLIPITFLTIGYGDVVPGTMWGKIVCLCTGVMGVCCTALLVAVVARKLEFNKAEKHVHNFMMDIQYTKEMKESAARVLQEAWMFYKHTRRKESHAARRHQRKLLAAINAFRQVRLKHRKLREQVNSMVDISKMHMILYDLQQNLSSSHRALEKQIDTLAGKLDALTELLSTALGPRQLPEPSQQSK
# [4] = test system: MM-RU human melanoma cells; settings: SCID mice inoculated with MM-RU human melanoma cells, daily administration; cited from earlier work
# T1 sequence (O89109 whole entry): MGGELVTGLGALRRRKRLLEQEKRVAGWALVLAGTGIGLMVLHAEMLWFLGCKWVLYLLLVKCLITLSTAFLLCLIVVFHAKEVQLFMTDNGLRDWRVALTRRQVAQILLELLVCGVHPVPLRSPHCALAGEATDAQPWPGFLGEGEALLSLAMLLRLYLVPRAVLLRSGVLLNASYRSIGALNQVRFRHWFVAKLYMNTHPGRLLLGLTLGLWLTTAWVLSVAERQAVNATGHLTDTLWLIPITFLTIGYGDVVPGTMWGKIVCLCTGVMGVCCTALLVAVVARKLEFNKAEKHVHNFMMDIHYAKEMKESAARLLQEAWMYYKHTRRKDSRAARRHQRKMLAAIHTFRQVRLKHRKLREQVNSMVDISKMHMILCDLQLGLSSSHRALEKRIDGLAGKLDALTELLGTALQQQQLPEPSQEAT
compound,measurement,setting,value
Clc1ccccc1C(c1ccccc1)(c1ccccc1)n1ccnc1 [Clotrimazole],"red cell Gardos channel, K+ content, MCHC, cell density",[1],"inhibition of the red cell Gardos channel, increased red cell K^+ content, a decreased mean cell hemoglobin concentration (MCHC) and decreased cell density"
same,Mitogenic Assay Inhibition,[2],93.0%
same,Gardos channel inhibition and erythrocyte dehydration,[3],induces inhibition of the Gardos channel and reduces erythrocyte dehydration
same,number of lung metastases,[4],significant reduction in the number of lung metastases observed
